The numbers were not newly measured in patent US20120328537A1, “Topical wound management formulation” (priority 2011, published 2012), which cites them from elsewhere.

For this data set, the system named is Strep Mutans. Particulars: in particular Strep Mutans, the main bacteria responsible for dental caries.

Turning to `OC[C@@H](O)[C@H](O)[C@@H](O)CO` [Xylitol], the growth of bacteria result is listed as “inhibit the growth of bacteria”.
